Assay results: patent publication US20240024488A1, “COMPOUNDS AND USES THEREOF” (Foghorn Therapeutics Inc., priority 2020, published 2024)

Assays:
HiBit-BRM fusion protein = target: T1, HiBit-BRM fusion protein (Homo sapiens, UniProt P51531); assay: HiBiT-BRM cell-based degradation assay (Nano-Glo HiBiT Lytic Detection, 24 h); details: HeLa cell line expressing HiBiT-BRM; for DC50: read-out: BRM HiBit Degradation IC50
T1 construct: expressed in transfected cells
How it was run: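 HeLa cells stably expressing HiBiT-BRM were treated for 24 h with compounds (10-point 3-fold dilutions, 30 μM final top dose, in duplicate). HiBiT was detected by lytic LgBiT complementation luminescence. % degradation was normalized to DMSO (high control) and 2 μM of a reference BRM/BRG1 degrader (low control).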

[1] = target: T2, HiBit-BRG1 fusion protein (Homo sapiens, UniProt P51532); assay: HiBiT-BRG1 cell-based degradation assay (Nano-Glo HiBiT Lytic Detection, 24 h); details: HeLa cell line expressing HiBit-BRG1 and LgBit; for Dmax: read-out: BRG1 HiBit Degradation Maximum (%); for DC50: read-out: BRMG1 HiBit Degradation IC50
T2 construct: expressed in transfected cells
T2 sequence (P51532 whole entry, the tested form may be a part): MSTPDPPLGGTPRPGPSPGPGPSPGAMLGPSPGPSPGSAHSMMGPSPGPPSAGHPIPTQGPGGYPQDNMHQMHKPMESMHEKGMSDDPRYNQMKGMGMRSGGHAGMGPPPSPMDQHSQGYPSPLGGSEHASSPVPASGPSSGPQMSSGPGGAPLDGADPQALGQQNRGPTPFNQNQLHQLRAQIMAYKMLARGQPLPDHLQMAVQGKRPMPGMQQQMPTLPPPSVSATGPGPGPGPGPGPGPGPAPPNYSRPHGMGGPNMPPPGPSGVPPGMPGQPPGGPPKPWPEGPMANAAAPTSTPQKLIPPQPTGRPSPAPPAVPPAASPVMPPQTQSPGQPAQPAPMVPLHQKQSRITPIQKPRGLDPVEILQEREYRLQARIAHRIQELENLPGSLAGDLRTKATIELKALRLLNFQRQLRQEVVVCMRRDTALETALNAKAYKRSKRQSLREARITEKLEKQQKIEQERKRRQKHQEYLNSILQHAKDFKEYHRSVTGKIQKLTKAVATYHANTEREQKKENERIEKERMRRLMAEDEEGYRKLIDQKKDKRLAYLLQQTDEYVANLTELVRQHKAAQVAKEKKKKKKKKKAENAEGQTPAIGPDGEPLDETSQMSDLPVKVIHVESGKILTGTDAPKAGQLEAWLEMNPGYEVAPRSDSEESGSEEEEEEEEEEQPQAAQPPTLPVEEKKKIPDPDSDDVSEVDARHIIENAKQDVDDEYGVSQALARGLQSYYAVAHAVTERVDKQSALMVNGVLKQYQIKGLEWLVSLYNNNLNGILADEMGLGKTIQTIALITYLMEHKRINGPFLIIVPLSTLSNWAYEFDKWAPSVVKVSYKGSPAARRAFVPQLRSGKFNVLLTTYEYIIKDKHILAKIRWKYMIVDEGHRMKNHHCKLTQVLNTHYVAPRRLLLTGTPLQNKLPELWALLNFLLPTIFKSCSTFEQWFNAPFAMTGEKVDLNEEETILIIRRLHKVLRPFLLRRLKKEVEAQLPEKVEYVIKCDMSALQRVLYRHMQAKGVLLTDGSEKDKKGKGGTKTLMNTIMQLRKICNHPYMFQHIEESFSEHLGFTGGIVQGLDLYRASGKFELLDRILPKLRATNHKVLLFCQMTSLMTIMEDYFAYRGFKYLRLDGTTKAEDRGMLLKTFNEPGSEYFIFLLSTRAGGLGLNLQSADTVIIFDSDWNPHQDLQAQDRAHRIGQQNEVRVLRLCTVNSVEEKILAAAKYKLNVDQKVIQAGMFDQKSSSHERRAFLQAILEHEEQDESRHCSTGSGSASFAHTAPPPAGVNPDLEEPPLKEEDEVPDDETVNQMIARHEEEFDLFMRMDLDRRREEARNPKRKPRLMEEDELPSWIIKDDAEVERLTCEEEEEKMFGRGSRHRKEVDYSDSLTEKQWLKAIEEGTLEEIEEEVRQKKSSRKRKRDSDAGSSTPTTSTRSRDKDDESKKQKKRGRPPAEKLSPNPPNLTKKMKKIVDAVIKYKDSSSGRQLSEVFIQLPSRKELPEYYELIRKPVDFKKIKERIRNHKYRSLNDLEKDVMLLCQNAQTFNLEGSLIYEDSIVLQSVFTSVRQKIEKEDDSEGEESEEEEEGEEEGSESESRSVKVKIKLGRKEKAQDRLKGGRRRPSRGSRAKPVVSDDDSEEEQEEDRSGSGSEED
How it was run: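 Stable HeLa line co-expressing HiBit-BRG1 and LgBit, 5000 cells/well, treated 24 h in a tissue culture incubator. Lysed with Nano-Glo HiBiT lytic reagent, luminescence read. % degradation normalized to DMSO (high control) and 2 μM reference BRM/BRG1 degrader (low control).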

T1 sequence (P51531 whole entry, the tested form may be a part): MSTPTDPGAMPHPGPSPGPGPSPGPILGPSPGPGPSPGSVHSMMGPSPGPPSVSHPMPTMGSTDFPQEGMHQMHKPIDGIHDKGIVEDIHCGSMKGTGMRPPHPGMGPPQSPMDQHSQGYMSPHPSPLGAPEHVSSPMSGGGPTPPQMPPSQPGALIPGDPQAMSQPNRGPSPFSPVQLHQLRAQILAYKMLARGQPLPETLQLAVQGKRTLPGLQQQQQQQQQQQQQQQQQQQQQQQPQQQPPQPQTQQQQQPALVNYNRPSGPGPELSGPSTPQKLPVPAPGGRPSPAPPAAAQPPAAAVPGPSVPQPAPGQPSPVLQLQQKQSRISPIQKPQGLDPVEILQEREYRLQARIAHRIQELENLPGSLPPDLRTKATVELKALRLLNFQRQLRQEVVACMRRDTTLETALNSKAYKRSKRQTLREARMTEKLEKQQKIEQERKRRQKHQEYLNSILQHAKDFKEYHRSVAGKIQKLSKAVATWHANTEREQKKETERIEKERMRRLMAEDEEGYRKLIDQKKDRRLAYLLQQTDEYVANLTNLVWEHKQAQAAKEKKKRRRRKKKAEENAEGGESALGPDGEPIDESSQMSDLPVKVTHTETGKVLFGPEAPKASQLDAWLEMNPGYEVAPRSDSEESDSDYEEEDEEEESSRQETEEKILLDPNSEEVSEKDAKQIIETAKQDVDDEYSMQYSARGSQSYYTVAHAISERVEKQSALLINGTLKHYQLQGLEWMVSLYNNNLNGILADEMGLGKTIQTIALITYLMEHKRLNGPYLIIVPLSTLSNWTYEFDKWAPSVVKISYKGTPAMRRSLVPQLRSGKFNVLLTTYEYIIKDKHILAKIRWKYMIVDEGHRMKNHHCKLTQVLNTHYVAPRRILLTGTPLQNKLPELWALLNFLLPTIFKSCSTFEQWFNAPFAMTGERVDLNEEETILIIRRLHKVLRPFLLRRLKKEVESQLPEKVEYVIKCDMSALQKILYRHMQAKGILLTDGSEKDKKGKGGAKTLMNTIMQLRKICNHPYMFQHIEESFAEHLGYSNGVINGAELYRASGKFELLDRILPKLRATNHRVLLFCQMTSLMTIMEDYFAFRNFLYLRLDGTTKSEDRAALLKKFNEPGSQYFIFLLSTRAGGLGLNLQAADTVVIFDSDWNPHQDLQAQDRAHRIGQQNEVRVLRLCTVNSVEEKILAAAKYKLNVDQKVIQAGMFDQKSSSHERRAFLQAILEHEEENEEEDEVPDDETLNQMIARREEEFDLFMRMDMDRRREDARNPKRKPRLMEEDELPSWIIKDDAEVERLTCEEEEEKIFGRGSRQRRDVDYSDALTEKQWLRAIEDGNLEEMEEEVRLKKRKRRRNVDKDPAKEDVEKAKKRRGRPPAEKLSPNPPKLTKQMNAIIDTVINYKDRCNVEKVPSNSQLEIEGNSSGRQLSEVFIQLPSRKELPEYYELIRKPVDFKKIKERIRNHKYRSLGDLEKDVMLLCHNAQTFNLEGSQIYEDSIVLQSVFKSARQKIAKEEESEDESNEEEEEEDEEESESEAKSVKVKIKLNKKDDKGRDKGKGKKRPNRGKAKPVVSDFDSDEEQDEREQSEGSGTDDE

DC50 (HiBit-BRM fusion protein) | Dmax [1] | DC50 [1] | Compound | BRM HiBit Degradation Maximum (%) (HiBit-BRM fusion protein)
> 10 nM | < 50% |  | Cc1ncsc1-c1ccc([C@H](C)NC(=O)[C@@H]2C[C@@H](O)CN2C(=O)[C@@H](c2cc(OCCN3CC[C@@H](c4c[nH]c5nnc(-c6ccccc6O)cc45)C3)no2)C(C)C)cc1 (racemic) [Compound 262, (2S,4R)-4-hydroxy-1-((R)-2-(3-(2-((S)-3-(3-(2-hydroxyphenyl)-7H-pyrrolo[2,3-c]pyridazin-5-yl)pyrrolidin-1-yl)ethoxy)isoxazol-5-yl)-3-methylbutanoyl)-N-((S)-1-(4-(4-methylthiazol-5-yl)phenyl)ethyl)pyrrolidine-2-carboxamide] | B (“B” indicates maximum degradation ≥ 50%)
> 100 nM | > 75% | > 1000 nM | Cc1ncsc1-c1ccc([C@H](C)NC(=O)[C@@H]2C[C@@H](O)CN2C(=O)[C@@H](c2cc(N3CCN(CC(=O)N4CC(c5cc6cc(-c7ccccc7O)nnc6[nH]5)C4)CC3)no2)C(C)C)cc1 (racemic) [Compound 263, (2S,4R)-4-hydroxy-1-((R)-2-(3-(4-(2-(3-(3-(2-hydroxyphenyl)-7H-pyrrolo[2,3-c]pyridazin-6-yl)azetidin-1-yl)-2-oxoethyl)piperazin-1-yl)isoxazol-5-yl)-3-methylbutanoyl)-N-((S)-1-(4-(4-methylthiazol-5-yl)phenyl)ethyl)pyrrolidine-2-carboxamide] | A (“A” indicates maximum degradation ≥ 75%)
 | < 50% |  | Cc1ncsc1-c1ccc([C@H](C)NC(=O)[C@@H]2C[C@@H](O)CN2C(=O)C(c2cc(N3CCC(C(=O)N4CC(c5cc6cc(-c7ccccc7O)nnc6[nH]5)C4)CC3)no2)C(C)C)cc1 (mixture of isomers) [Compound 264, (2S,4R)-4-hydroxy-1-((R)-2-(3-(4-(3-(3-(2-hydroxyphenyl)-7H-pyrrolo[2,3-c]pyridazin-6-yl)azetidine-1-carbonyl)piperidin-1-yl)isoxazol-5-yl)-3-methylbutanoyl)-N-((S)-1-(4-(4-methylthiazol-5-yl)phenyl)ethyl)pyrrolidine-2-carboxamide] | C (“C” indicates maximum degradation < 50%)
> 100 nM | < 50% |  | Cc1ncsc1-c1ccc([C@H](C)NC(=O)[C@@H]2C[C@@H](O)CN2C(=O)[C@@H](c2cc(OCCN3CCC(c4c(C)[nH]c5nnc(-c6ccccc6O)cc45)CC3)no2)C(C)C)cc1 (racemic) [Compound 265, (2S,4R)-4-hydroxy-1-[(2R)-2-[3-(2-{4-[3-(2-hydroxyphenyl)-6-methyl-7H-pyrrolo[2,3-c]pyridazin-5-yl]piperidin-1-yl}ethoxy)-1,2-oxazol-5-yl]-3-methylbutanoyl]-N-[(1S)-1-[4-(4-methyl-1,3-thiazol-5-yl)phenyl]ethyl]pyrrolidine-2-carboxamide] | A (“A” indicates maximum degradation ≥ 75%)
> 10 nM | > 75% | > 100 nM | Cc1ncsc1-c1ccc([C@H](C)NC(=O)[C@@H]2C[C@@H](O)CN2C(=O)[C@@H](c2onc(OCCN3CC(c4cc5cc(-c6ccccc6O)nnc5[nH]4)C3)c2Cl)C(C)C)cc1 (racemic) [Compound 266, (2S,4R)-1-((R)-2-(4-chloro-3-(2-(3-(3-(2-hydroxyphenyl)-7H-pyrrolo[2,3-c]pyridazin-6-yl)azetidin-1-yl)ethoxy)isoxazol-5-yl)-3-methylbutanoyl)-4-hydroxy-N-((S)-1-(4-(4-methylthiazol-5-yl)phenyl)ethyl)pyrrolidine-2-carboxamide] | A (“A” indicates maximum degradation ≥ 75%)
> 100 nM | < 50% |  | Cc1ncsc1-c1ccc([C@H](C)NC(=O)[C@@H]2C[C@@H](O)CN2C(=O)[C@@H](c2cc(N3CCN(C(=O)C(=O)N4CC(c5c[nH]c6nnc(-c7ccccc7O)cc56)C4)CC3)no2)C(C)C)cc1 (racemic) [Compound 267, (2S,4R)-4-hydroxy-1-((R)-2-(3-(4-(2-(3-(3-(2-hydroxyphenyl)-7H-pyrrolo[2,3-c]pyridazin-5-yl)azetidin-1-yl)-2-oxoacetyl)piperazin-1-yl)isoxazol-5-yl)-3-methylbutanoyl)-N-((S)-1-(4-(4-methylthiazol-5-yl)phenyl)ethyl)pyrrolidine-2-carboxamide] | A (“A” indicates maximum degradation ≥ 75%)
> 10 nM | > 75% | > 100 nM | Cc1ncsc1-c1ccc([C@H](C)NC(=O)[C@@H]2C[C@@H](O)CN2C(=O)[C@@H](c2cc(N3CCN(C(=O)CN4CC(c5cc6cc(-c7ccccc7O)nnc6[nH]5)C4)CC3)no2)C(C)C)cc1 (racemic) [Compound 269, (2S,4R)-4-hydroxy-1-((R)-2-(3-(4-(2-(3-(3-(2-hydroxyphenyl)-7H-pyrrolo[2,3-c]pyridazin-6-yl)azetidin-1-yl)acetyl)piperazin-1-yl)isoxazol-5-yl)-3-methylbutanoyl)-N-((S)-1-(4-(4-methylthiazol-5-yl)phenyl)ethyl)pyrrolidine-2-carboxamide] | A (“A” indicates maximum degradation ≥ 75%)
< 10 nM | > 75% | > 10 nM | Cc1ncsc1-c1ccc([C@H](C)NC(=O)[C@@H]2C[C@@H](O)CN2C(=O)[C@@H](c2cc(OCCN3CCC(c4[nH]c5nnc(-c6ccccc6O)cc5c4C)CC3)no2)C(C)C)cc1 (racemic) [Compound 270, (2S,4R)-4-hydroxy-1-[(2R)-2-[3-(2-{4-[3-(2-hydroxyphenyl)-5-methyl-7H-pyrrolo[2,3-c]pyridazin-6-yl]piperidin-1-yl}ethoxy)-1,2-oxazol-5-yl]-3-methylbutanoyl]-N-[(1S)-1-[4-(4-methyl-1,3-thiazol-5-yl)phenyl]ethyl]pyrrolidine-2-carboxamide] | A (“A” indicates maximum degradation ≥ 75%)
< 10 nM | > 75% | > 10 nM | Cc1ncsc1-c1ccc([C@H](C)NC(=O)[C@@H]2C[C@@H](O)CN2C(=O)[C@@H](c2cc(OCCN3CCC(N4CC(c5[nH]c6nnc(-c7ccccc7O)cc6c5C)C4)CC3)no2)C(C)C)cc1 (racemic) [Compound 271, (2S,4R)-4-hydroxy-1-((R)-2-(3-(2-(4-(3-(3-(2-hydroxyphenyl)-5-methyl-7H-pyrrolo[2,3-c]pyridazin-6-yl)azetidin-1-yl)piperidin-1-yl)ethoxy)isoxazol-5-yl)-3-methylbutanoyl)-N-((S)-1-(4-(4-methylthiazol-5-yl)phenyl)ethyl)pyrrolidine-2-carboxamide] | A (“A” indicates maximum degradation ≥ 75%)

Compound | DC50 (HiBit-BRM fusion protein) | Dmax [1] | DC50 [1] | BRM HiBit Degradation Maximum (%) (HiBit-BRM fusion protein)
Cc1ncsc1-c1ccc([C@H](C)NC(=O)[C@@H]2C[C@@H](O)CN2C(=O)[C@@H](c2cc(N3CCN(CCC(=O)N4CC(c5cc6cc(-c7ccccc7O)nnc6[nH]5)C4)CC3)no2)C(C)C)cc1 (racemic) [Compound 268, (2S,4R)-4-hydroxy-1-[(2R)-2-{3-[4-(3-{3-[3-(2-hydroxyphenyl)-7H-pyrrolo[2,3-c]pyridazin-6-yl]azetidin-1-yl}-3-oxopropyl)piperazin-1-yl]-1,2-oxazol-5-yl}-3-methylbutanoyl]-N-[(1S)-1-[4-(4-methyl-1,3-thiazol-5-yl)phenyl]ethyl]pyrrolidine-2-carboxamide] | > 100 nM |  | > 1000 nM | A (“A” indicates maximum degradation ≥ 75%)
